Experimental data: patent US20170226541A1, “METHOD OF IMPROVING SOLVENT TOLERANCE IN MICROBES” (Nanyang Technological University, priority 2014, published 2017)
“Also recorded” adds a separate entry of the source.

Tests used:
[1] = Single molecule tracking of DHPE-Atto647N in supported lipid bilayer; parameters: species or system E. coli; settings: for effect on MSD / bilayer stiffness (comparison of OPV COEs): no butanol, OPV COE final concentration 1 μM (FIG. 4)
Procedure: SLB formation, MIM treatment: A 3 mg/ml chloroform solution of total E. coli lipid extract (Avanti Polar Lipids, Alabaster, Ala.) was mixed with DHPE-Atto647N (Atto-Tec, Slegen, Germany) to 0.001% mol in a round bottom flask produce large unilamellar vesicles (LUVs). Chloroform was evaporated using a rotary evaporator for 2 hours at 65° C. The lipid film was resuspended in 10 mM HEPES and 150 mM NaCl, pH 7.4, vortexed for 10 min and sonicated in a bath sonicator until a clear solution was obtained. One hundred μl of such a prepared LUVs solution were deposited in a custom made plastic holder, glued to a coverslip, and incubated for 60 min at 65° C. Prior to use, coverslips were cleaned by 30 min sonication in 2% Hellmanex (Hellma Analytics, Millheim, Germany), followed by thorough rinsing with deionized (DI) water. Un-fused vesicles were removed by 10× washing with 400 μl of 10 mM Hepes, 150 mM NaCl, 3 mM EDTA, pH 7.4 buffer. Calculated volumes of COE1-5C, DSSN+, DSBN+ and 4F-DSBN+ (0.1 mM) were added directly to the chamber to final concentrations of 1 μM, mixed and allowed to equilibrate for 5 min prior to measurement.
Data acquisition: For total internal reflection microscopy (TIRF) imaging, a modified Nikon Eclipse TE2000U TIRF setup was used, equipped with a 100× 1.49NA objective (Nikon, Japan). Laser light from a 638 nm LED laser was passed through a 660LP dichromic mirror (Chroma Technology Corp, Bellows Falls, Vt.) and used for sample illumination under the TIR angle. Emitted light was filtered using a 738/75 […] and collected on a back-illuminated EMCCD camera chip (Andor iXON897, 512x512px, Andor Technology, USA). For each condition, 4 to 6 datasets of 4000 frames at 97 fps were collected from different regions of the membrane. Immobile particles and contaminants were bleached prior to measurement.
Data analysis: A Mosaic Particle Tracker ImageJ plugin was used to localize the centroid of single molecule signals and link them to trajectories. TrackArt software was used to filter spurious trajectories and extract mean square displacements and diffusion coefficients. […] The slowly-diffusing population occurs most likely due to marker interaction with the surface.

[2] = test system: E. coli K12; test: Butanol challenge, microdilution growth test; assay type: cell-based, Escherichia coli K12 (ATTC 10798); settings: for protective effect on growth under butanol challenge: 0 to 3.5% (v/v) butanol, DSSN+ 5 μM
Procedure: Butanol challenge was assessed by using a microdilution format modified standard toxicity test based on the method described by Wiegand et al (I. Wiegand, K. Hilpert, R. E. W. Hancock, Nat. Protocols 2008, 3, 163-175). Cultures of E. coli K12 (ATTC 10798) grown in LB broth were harvested at late log phase and diluted to 1×10^6 cfu ml. One hundred μl of the suspension were inoculated into 96 well plates with each well containing an equal volume of LB broth and spiked with the following concentrations of 1-butanol: […] in a 96 well plate achieving a final inoculum density of 5×10^5 and a final butanol concentration of 0, 0.85, 1.75, and 3.5% (v/v). Tests were run in triplicate with and without COE1-5C (10 μM) and DSSN+ (5 μM) using the appropriate sterility and growth controls. Specific growth rates were expressed as an average of all replicates.

[3] = test system: E. coli K12; test: Toxicity tests (minimum inhibitory concentration); assay type: cell-based, Escherichia coli K12
Text: Relative toxicities of DSSN+ and DSBN+ are positively correlated with the extent of mismatch between the length of the hydrophobic molecular backbone and bilayer thickness. Membrane insertion of the shorter, 3-ringed DSBN+ thinned the membrane more than the 4-ringed DSSN+, perturbing it to a greater extent, and was correspondingly more toxic. In this example, the objective is to mitigate the toxic effect of organic solvents on biological membranes. To avoid synergistic membrane disruption in systems containing both MIMs and solvents, MIMs that were the least likely to perturb membranes, that is, DSSN+×(which was previously shown to maintain the natural thickness of membranes) and COE1-5C, were selected. The insertion of COE1-5C, whose molecular length (≈5 nm) is greater than the thickness of the bilayer (≈4 nm), would be expected to initiate membrane perturbation because of hydrophobic mismatch. However, positive hydrophobic mismatch perturbs lipid bilayers less than instances of negative mismatch—where the length of the insertion molecules is shorter than the thickness of the bilayer. The experimental concentration of COE1-5C used in this study (10 μM) is much lower than its minimum inhibitory concentration (MIC). […] This is considerably greater than for DSSN+, DSBN+ and 4F-DSBN+, further supporting the hypothesis that membrane thinning is a potent toxicity determinant. […]

[4] = test system: E. coli K12 cells; test: Modified microbial adhesion to hydrocarbon (MATH) test; assay type: cell-based, Escherichia coli K12
Procedure: To test for cell surface modifications brought about by COE1-5C that might affect hydrophobicity, E. coli K12 cells treated with COE1-5C (10 μM) were tested for their affinity for either the butanol or aqueous phase against an untreated control. The tendency of E. coli to partition into the butanol phase or remain in the aqueous phase was assessed optically by measuring the reduction in turbidity (OD600) of tubes containing a saturated mixture of butanol (1.5 ml) and buffer (18.5 ml). The tests were carried out with appropriate blanks and both positive and negative controls. MATH tests were carried out in triplicate and expressed as the quotient of the difference between the OD600 at the start and […] and the OD600 at the […].

[5] = test system: E. coli K12; test: Membrane polarisation (DiSC3 fluorescence); assay type: cell-based, Escherichia coli K12; settings: 10 μM COE1-5C; 0, 1.75 or 3.5% (v/v) 1-butanol
Procedure: Cultures of E. coli K12 grown in LB broth were harvested at late log phase and diluted to 5×10^5 cfu ml. Cells were centrifuged at 5000×g for 5 min and washed in phosphate buffered saline (PBS). The process was repeated three times and the pellet finally resuspended in PBS. Two-hundred μl of the cell suspension were inoculated into 96 well plates, 2 μL of the depolarization detecting probe 3,3-diethylthiodicarbocyanine (DiSC3) iodide was added to the treatment wells and to half of these, 10 μM COE1-5C. The cells were allowed to incubate for around 30 min and the fluorescence intensity at 670 nm was measured after excitation at 620 nm until a stable base line was reached. Zero, 1.75, or 3.5% (v/v) 1-butanol was added to the test well and the increase in fluorescence intensity was taken at 1 min intervals (Ex=λ620, Em=Δ670) as a bottom reading with optimal gain to determine the degree of membrane polarization. Buffer, dye, and COE1-5C blanks were monitored and the data corrected accordingly.

C[N+](C)(C)CCCCCCN(CCCCCC[N+](C)(C)C)c1ccc(/C=C/c2ccc(/C=C/c3ccc(/C=C/c4ccc(N(CCCCCC[N+](C)(C)C)CCCCCC[N+](C)(C)C)cc4)cc3)cc2)cc1.[I-].[I-].[I-].[I-] [DSSN+, reference compound]
effect on MSD / bilayer stiffness (comparison of OPV COEs) [1]: to a lesser degree than the five-ringed structure | protective effect on growth under butanol challenge ([2]; COE1-5C 10 μM): no protective effect; also recorded: no growth of E. coli K12 was observed | protective effect on growth under butanol challenge ([2]; COE1-5C 10 μM, listed as DSSN^+): do not

C[N+](C)(C)CCCCCCN(CCCCCC[N+](C)(C)C)c1ccc(/C=C/c2c(F)c(F)c(/C=C/c3ccc(N(CCCCCC[N+](C)(C)C)CCCCCC[N+](C)(C)C)cc3)c(F)c2F)cc1.[I-].[I-].[I-].[I-] [4F-DSBN+, reference compound]
effect on MSD / bilayer stiffness (comparison of OPV COEs) [1]: stiffened the least amount

C[N+](C)(C)CCCCCCN(CCCCCC[N+](C)(C)C)c1ccc(/C=C/c2ccc(/C=C/c3ccc(N(CCCCCC[N+](C)(C)C)CCCCCC[N+](C)(C)C)cc3)cc2)cc1.[I-].[I-].[I-].[I-] [DSBN+, reference compound]
effect on MSD / bilayer stiffness (comparison of OPV COEs) [1]: to a lesser degree than the five-ringed structure

C[N+](C)(C)CCCCCCN(CCCCCC[N+](C)(C)C)c1ccc(C=Cc2ccc(C=Cc3ccc(C=Cc4ccc(C=Cc5ccc(N(CCCCCC[N+](C)(C)C)CCCCCC[N+](C)(C)C)cc5)cc4)cc3)cc2)cc1.[I-].[I-].[I-].[I-] [COE1-5C]
reduction in MSD of membrane marker ([1]; 0% (v/v) butanol): 62% | diffusion coefficients in model membranes versus control ([1]; 10 μM COE1-5C, 0.85, 1.75, 3.50% v/v butanol (FIG. 2)): much lower than in control systems | reduction in MSD of membrane marker ([1]; 0.85% (v/v) butanol): 38% | reduction in MSD of membrane marker ([1]; 1.75% (v/v) butanol): 22% | reduction in MSD of membrane marker ([1]; 3.5% v/v butanol): 15% | effect on MSD / bilayer stiffness (comparison of OPV COEs) [1]: increased bilayer stiffness to the greatest degree | minimum inhibitory concentration (MIC) [3]: 128 µM | protective effect on growth under butanol challenge ([2]; COE1-5C 10 μM): increased the growth rate of E. coli K12 in all instances of butanol challenge; also recorded: mitigates the toxic effect of butanol | growth rate of treated cells relative to untreated cells (fold) ([2]; 3.5% v/v butanol): threefold increase | growth rate relative to a control ([2]; 3.5% v/v butanol): about 13% | specific growth rate ([2]; 3.5% v/v butanol, COE1-5C 10 μM, listed as conjugated oligo-electrolyte): 0.095 h⁻¹ | growth rate of treated cells relative to untreated cells (fold) ([2]; 3.5% v/v butanol, listed as OPV COE): three times | growth rate of treated cells relative to untreated cells (fold) ([2]; 3.5% v/v butanol, listed as conjugated oligo-electrolyte): 3 | tendency of treated cells to partition into the butanol phase relative to untreated cells ([4]; 10 μM COE1-5C): less than half that of untreated cells | MATH value ([4]; E. coli K12 treated with 10 μM COE1-5C, butanol/buffer partitioning, OD600): 0.17 (±0.027) | membrane depolarization by butanol [5]: mitigated the depolarization efficiency of butanol
